Measurements: paper PMC6522510 (Nature Communications, 2019)
Read-outs that look alike come from different tables or passages of the source.

Columns and labels:
Set-up in all cases: species or system AML cell lines (8); Primary HTS, single concentration about 10 uM, Cell Titer Glo viability; log10 luminescence, per cent inhibition relative to cycloheximide control
Details in all cases: 72 h, inhibitor
ML-2 = tested on: ML-2
MV4-11 = tested on: MV4-11
MOLM-13 = tested on: MOLM-13
CMK = tested on: CMK
CMS = tested on: CMS
CHRF288-11 = tested on: CHRF288-11
U937 = tested on: U937
M07e = tested on: M07e
[1] = relative to cycloheximide control, log10 luminescence

SMILES | ML-2 %inh (ML-2; [1]) | MV4-11 %inh (MV4-11; [1]) | MOLM-13 %inh (MOLM-13; [1]) | CMK %inh (CMK; [1]) | CMS %inh (CMS; [1]) | CHRF288-11 %inh (CHRF288-11; [1]) | U937 %inh (U937; [1]) | M07e %inh (M07e; [1]) | ML-2 %inh (ML-2; 10 µM) | MV4-11 %inh (MV4-11; 10 µM) | MOLM-13 %inh (MOLM-13; 10 µM) | CMK %inh (CMK; 10 µM) | CMS %inh (CMS; 10 µM) | CHRF288-11 %inh (CHRF288-11; 10 µM) | U937 %inh (U937; 10 µM) | M07e %inh (M07e; 10 µM)
CC1=C(C(=O)Nc2cc(Cl)c3[nH]ncc3c2)C(c2ccc(C(F)(F)F)cc2)CC(=O)N1 (stereo not shown) [SJ000573181-1, SD204573-088A4] | 13.01% | 31.1% | 4.804% | 54.4% | 8.733% | 20.3% | 8.409% | 13.65% | – | – | – | – | – | – | – | –
Nc1nccc(-c2c(-c3ccc(F)cc3)ncn2C2CCC(O)CC2)n1 (stereo not shown) [SJ000573182-1, MS27011-022A2] | 10.85% | 24.38% | 26.67% | 25.82% | 9.299% | 23.09% | 5.213% | 6.63% | – | – | – | – | – | – | – | –
O=C1NC(=O)C(c2ccccc2Cl)=C1Nc1cccc(O)c1 [SJ000573183-1, BS98679-018A5] | 39.83% | 22.8% | 67.3% | 56.79% | 26.93% | 41.21% | 51.74% | 51.61% | – | – | – | – | – | – | – | –
COc1cccc(-c2c[nH]c3c(N/N=C/c4ccncc4)ncnc23)c1 [SJ000573184-1, U18675/6/1] | 19.51% | 58.64% | 59.82% | 96.73% | 90.74% | 52.41% | 14.24% | 38.1% | – | – | – | – | – | – | – | –
NC(=O)c1sc(-n2cnc3cc(C(F)(F)F)ccc32)cc1OCc1ccccc1Br [SJ000573185-1, U19121/197/1] | -0.4297% | 1.859% | 0.4978% | 3.577% | -1.069% | 0.2512% | -0.2413% | -2.426% | – | – | – | – | – | – | – | –
CS(=O)(=O)Nc1cccc(-c2ccc3c(NC(=O)C4CC4)n[nH]c3c2)c1 [SJ000573187-1, VB100064-178A3] | 56.77% | 73.57% | 75.64% | 72.59% | 0.4745% | 25.27% | 80.28% | 29.33% | – | – | – | – | – | – | – | –
[O-][S+]1CCN(Cc2ccc(-c3ccc4ncnc(Nc5ccc(OCc6ccccc6)c(F)c5)c4c3)o2)CC1 [SJ000573188-1, U14859/145/2] | -0.4978% | 1.608% | 2.781% | -1.588% | -1.026% | 1.525% | -0.5877% | -1.871% | – | – | – | – | – | – | – | –
O=C(Nc1n[nH]c2cc(-c3cc(F)ccc3F)ccc12)C1CC1 [SJ000573189-1, VB100064-133A2] | 4.109% | 1.045% | 3.339% | 46.32% | 3.394% | 23.56% | 8.276% | 13.96% | – | – | – | – | – | – | – | –
CC1(C)CC(n2cnc(-c3ccc(F)cc3)c2-c2ccnc(N)n2)CC(C)(C)N1 [SJ000573190-1, JB19236-188C1] | 5.936% | 1.547% | 0.169% | 5.841% | -2.621% | 9.345% | -2.021% | 10.18% | – | – | – | – | – | – | – | –
CC(C)c1ccc(Nc2nccc(-c3cnn4ncccc34)n2)cc1 [SJ000573192-1, U16419/190/2] | 59.67% | 84.54% | 111.4% | 58.79% | 101.8% | 27.16% | 82.47% | 49.73% | – | – | – | – | – | – | – | –
CCc1cccc(NC(=O)Nc2ccc(Oc3ccc4nc(NC(=O)OC)[nH]c4c3)cc2)c1 [SJ000573193-1, T229/79/1] | 5.896% | 84.23% | 61.84% | 50% | -0.1127% | -2.602% | 3.761% | 0.5293% | – | – | – | – | – | – | – | –
Cc1nnc(-c2ccc(C)c(-c3ccc(C(=O)Nc4cccc(C#N)c4)cc3)c2)o1 [SJ000573195-1, R4373/145/1] | 2.033% | 0.5717% | 1.779% | 1.609% | -1.248% | -2.997% | -2.444% | -0.9532% | – | – | – | – | – | – | – | –
COc1ccc2cc(-c3c(-c4ccncc4)nc(-c4ccc(S(C)(=O)=O)cc4C)n3C)ccc2c1 [SJ000573196-1, NJ44157-082B1] | 0.1738% | 2.69% | 0.5598% | 17.63% | 1.339% | 3.66% | -1.98% | -0.09869% | – | – | – | – | – | – | – | –
Fc1ccc(-c2c(-c3ccncc3)nc3n2CCS3)cc1 [SJ000573197-1, EXSB/CR-9802-49AZ] | 4.223% | 10.89% | -3.2% | 1.128% | 6.192% | 6.614% | 19.21% | 1.347% | – | – | – | – | – | – | – | –
CS(=O)(=O)Nc1ccc(-c2ccc3c(NC(=O)C4CC4)n[nH]c3c2)cc1 [SJ000573198-1, VB100064-183A1] | 1.388% | 1.756% | 0.3925% | 0.4517% | -0.1456% | 1.64% | -2.07% | 7.577% | – | – | – | – | – | – | – | –
CN(C)CCCNc1nccc(-c2c(-c3ccc(F)cc3)nn3cc(C(F)(F)F)ccc23)n1 [SJ000573200-1, U14929/105/1] | 2.988% | 2.615% | 3.151% | 6.318% | -0.7094% | 4.716% | 2.291% | 5.185% | – | – | – | – | – | – | – | –
CCN1CCC(C(=O)Nc2n[nH]c3nnc(-c4cccc(F)c4F)cc23)CC1 [SJ000573202-1, JW48822-155B0] | 2.893% | 52.48% | 18.95% | 106.6% | 98.67% | 19.17% | 29.66% | 22.9% | – | – | – | – | – | – | – | –
CCn1c(-c2nonc2N)nc2ccncc21 [SJ000573203-1, JS100940-045A1] | 2.303% | -1.945% | 0.1335% | 40.02% | -0.06255% | 39.85% | 1.08% | -2.227% | – | – | – | – | – | – | – | –
NS(=O)(=O)c1cccc(-c2ccc3c(NC(=O)C4CC4)n[nH]c3c2)c1 [SJ000573205-1, VB100064-175A1] | 8.415% | 1.069% | 11.82% | 1.524% | -2.181% | 4.666% | 7.36% | -1.196% | – | – | – | – | – | – | – | –
COC(=O)c1cncc(/C=C/c2c(C)cc(O)cc2C)c1 [SJ000573206-1, U12614/140/1] | 4.986% | 6.215% | 1.326% | 80.78% | 1.868% | 31.61% | 23.01% | 18.22% | – | – | – | – | – | – | – | –
CCCN(CCS(C)(=O)=O)Cc1ccc(-c2ccc3ncnc(Nc4ccc(OCc5cccc(F)c5)c(Cl)c4)c3c2)o1 [SJ000573207-1, U16419/108/1] | 1.001% | 1.09% | 2.051% | 1.892% | -1.914% | 4.347% | 4.462% | -0.08315% | – | – | – | – | – | – | – | –
CS(=O)(=O)CCNCc1nc(-c2ccc3ncnc(Nc4ccc(F)c(Cl)c4)c3c2)cs1 [SJ000573208-1, R2677/150/1] | 0.9399% | 1.268% | 1.729% | 3.345% | 3.363% | 0.6669% | -0.3412% | 1.192% | – | – | – | – | – | – | – | –
O=C(Nc1n[nH]c2nnc(-c3cccnc3)cc12)C1CC1 [SJ000573209-1, VB49227-069A2] | – | – | – | – | – | – | – | – | 10.24% | 53.21% | 58.37% | 119.5% | 99.51% | 36.24% | 14.39% | 20.82%
